Assay results taken from the NIST ThermoML archive (doi:10.1021/je900732r).
± gives the expanded uncertainty stated by the source.

Experiment: mn = molality of the nth substance listed, in mol/kg
Settings: 101 kPa, Liquid

C[S+](C)[O-] [dimethyl sulfoxide] + [Cu+2].[O-][Cl+3]([O-])([O-])[O-].[O-][Cl+3]([O-])([O-])[O-]
mass density (293.15 K, m2 = 0): 1100.23 ± 0.56 kg/m3
mass density (298.15 K, m2 = 0): 1095.2 ± 0.56 kg/m3
mass density (303.15 K, m2 = 0): 1090.18 ± 0.55 kg/m3
mass density (313.15 K, m2 = 0): 1080.12 ± 0.53 kg/m3
mass density (323.15 K, m2 = 0): 1070.08 ± 0.51 kg/m3
mass density (333.15 K, m2 = 0): 1060.04 ± 0.49 kg/m3

CO [methanol] + O=S(=O)([O-])C(F)(F)F.O=S(=O)([O-])C(F)(F)F.[Cu+2]
mass density (283.15 K, m2 = 0): 800.548 ± 0.5 kg/m3
mass density (288.15 K, m2 = 0): 795.857 ± 0.51 kg/m3
mass density (293.15 K, m2 = 0): 791.162 ± 0.51 kg/m3
mass density (298.15 K, m2 = 0): 786.452 ± 0.52 kg/m3
mass density (303.15 K, m2 = 0): 781.722 ± 0.52 kg/m3
mass density (308.15 K, m2 = 0): 776.978 ± 0.53 kg/m3
mass density (313.15 K, m2 = 0): 772.2 ± 0.54 kg/m3

[Cu+2].[O-][Cl+3]([O-])([O-])[O-].[O-][Cl+3]([O-])([O-])[O-] [copper perchlorate] + C[S+](C)[O-]
mass density (293.15 K, m1 = 0.01424): 1103.32 ± 0.57 kg/m3
mass density (293.15 K, m1 = 0.01956): 1104.48 ± 0.57 kg/m3
mass density (293.15 K, m1 = 0.02779): 1106.27 ± 0.58 kg/m3
mass density (293.15 K, m1 = 0.03497): 1107.84 ± 0.58 kg/m3
mass density (293.15 K, m1 = 0.0419): 1109.35 ± 0.59 kg/m3
mass density (293.15 K, m1 = 0.05636): 1112.53 ± 0.59 kg/m3
mass density (293.15 K, m1 = 0.07067): 1115.69 ± 0.6 kg/m3
mass density (293.15 K, m1 = 0.08366): 1118.57 ± 0.61 kg/m3
mass density (293.15 K, m1 = 0.09783): 1121.71 ± 0.62 kg/m3
mass density (293.15 K, m1 = 0.1114): 1124.76 ± 0.62 kg/m3
mass density (293.15 K, m1 = 0.1251): 1127.83 ± 0.63 kg/m3
mass density (293.15 K, m1 = 0.1384): 1130.82 ± 0.64 kg/m3
mass density (298.15 K, m1 = 0.01424): 1098.31 ± 0.56 kg/m3
mass density (298.15 K, m1 = 0.01956): 1099.47 ± 0.56 kg/m3
mass density (298.15 K, m1 = 0.02779): 1101.26 ± 0.57 kg/m3
mass density (298.15 K, m1 = 0.03497): 1102.83 ± 0.57 kg/m3
mass density (298.15 K, m1 = 0.0419): 1104.35 ± 0.58 kg/m3
mass density (298.15 K, m1 = 0.05636): 1107.54 ± 0.58 kg/m3
mass density (298.15 K, m1 = 0.07067): 1110.7 ± 0.59 kg/m3
mass density (298.15 K, m1 = 0.08366): 1113.58 ± 0.6 kg/m3
mass density (298.15 K, m1 = 0.09783): 1116.73 ± 0.61 kg/m3
mass density (298.15 K, m1 = 0.1114): 1119.78 ± 0.62 kg/m3
mass density (298.15 K, m1 = 0.1251): 1122.85 ± 0.62 kg/m3
mass density (298.15 K, m1 = 0.1384): 1125.85 ± 0.63 kg/m3
mass density (303.15 K, m1 = 0.01424): 1093.29 ± 0.55 kg/m3
mass density (303.15 K, m1 = 0.01956): 1094.46 ± 0.56 kg/m3
mass density (303.15 K, m1 = 0.02779): 1096.26 ± 0.56 kg/m3
mass density (303.15 K, m1 = 0.03497): 1097.83 ± 0.56 kg/m3
mass density (303.15 K, m1 = 0.0419): 1099.36 ± 0.57 kg/m3
mass density (303.15 K, m1 = 0.05636): 1102.54 ± 0.58 kg/m3
mass density (303.15 K, m1 = 0.07067): 1105.71 ± 0.58 kg/m3
mass density (303.15 K, m1 = 0.08366): 1108.61 ± 0.59 kg/m3
mass density (303.15 K, m1 = 0.09783): 1111.75 ± 0.6 kg/m3
mass density (303.15 K, m1 = 0.1114): 1114.82 ± 0.61 kg/m3
mass density (303.15 K, m1 = 0.1251): 1117.89 ± 0.61 kg/m3
mass density (303.15 K, m1 = 0.1384): 1120.9 ± 0.62 kg/m3
mass density (313.15 K, m1 = 0.01424): 1083.26 ± 0.54 kg/m3
mass density (313.15 K, m1 = 0.01956): 1084.44 ± 0.54 kg/m3
mass density (313.15 K, m1 = 0.02779): 1086.25 ± 0.54 kg/m3
mass density (313.15 K, m1 = 0.03497): 1087.83 ± 0.55 kg/m3
mass density (313.15 K, m1 = 0.0419): 1089.37 ± 0.55 kg/m3
mass density (313.15 K, m1 = 0.05636): 1092.57 ± 0.56 kg/m3
mass density (313.15 K, m1 = 0.07067): 1095.76 ± 0.57 kg/m3
mass density (313.15 K, m1 = 0.08366): 1098.65 ± 0.57 kg/m3
mass density (313.15 K, m1 = 0.09783): 1101.83 ± 0.58 kg/m3
mass density (313.15 K, m1 = 0.1114): 1104.9 ± 0.59 kg/m3
mass density (313.15 K, m1 = 0.1251): 1108 ± 0.6 kg/m3
mass density (313.15 K, m1 = 0.1384): 1111.02 ± 0.6 kg/m3
mass density (323.15 K, m1 = 0.01424): 1073.23 ± 0.52 kg/m3
mass density (323.15 K, m1 = 0.01956): 1074.42 ± 0.52 kg/m3
mass density (323.15 K, m1 = 0.02779): 1076.24 ± 0.53 kg/m3
mass density (323.15 K, m1 = 0.03497): 1077.83 ± 0.53 kg/m3
mass density (323.15 K, m1 = 0.0419): 1079.36 ± 0.53 kg/m3
mass density (323.15 K, m1 = 0.05636): 1082.6 ± 0.54 kg/m3
mass density (323.15 K, m1 = 0.07067): 1085.8 ± 0.55 kg/m3
mass density (323.15 K, m1 = 0.08366): 1088.72 ± 0.56 kg/m3
mass density (323.15 K, m1 = 0.09783): 1091.91 ± 0.56 kg/m3
mass density (323.15 K, m1 = 0.1114): 1095 ± 0.57 kg/m3
mass density (323.15 K, m1 = 0.1251): 1098.11 ± 0.58 kg/m3
mass density (323.15 K, m1 = 0.1384): 1101.14 ± 0.58 kg/m3
mass density (333.15 K, m1 = 0.01424): 1063.21 ± 0.5 kg/m3
mass density (333.15 K, m1 = 0.01956): 1064.4 ± 0.5 kg/m3
mass density (333.15 K, m1 = 0.02779): 1066.24 ± 0.51 kg/m3
mass density (333.15 K, m1 = 0.03497): 1067.84 ± 0.51 kg/m3
mass density (333.15 K, m1 = 0.0419): 1069.38 ± 0.52 kg/m3
mass density (333.15 K, m1 = 0.05636): 1072.64 ± 0.52 kg/m3
mass density (333.15 K, m1 = 0.07067): 1075.85 ± 0.53 kg/m3
mass density (333.15 K, m1 = 0.08366): 1078.79 ± 0.54 kg/m3
mass density (333.15 K, m1 = 0.09783): 1082 ± 0.55 kg/m3
mass density (333.15 K, m1 = 0.1114): 1085.1 ± 0.55 kg/m3
mass density (333.15 K, m1 = 0.1251): 1088.23 ± 0.56 kg/m3
mass density (333.15 K, m1 = 0.1384): 1091.28 ± 0.57 kg/m3
